Assay results reported in PMC8284444, “Two β-Lactamase Variants with Reduced Clavulanic Acid Inhibition Display Different Millisecond Dynamics” (Antimicrobial Agents and Chemotherapy, 2021).

How the values were obtained:
Format in all cases: biochemical
[1] = molecular target: BlaC (β-lactamase of Mycobacterium tuberculosis) (Mycobacterium tuberculosis, UniProt P9WKD3, R229S)
[2] = molecular target: T1, BlaC (β-lactamase of Mycobacterium tuberculosis) (Mycobacterium tuberculosis, UniProt P9WKD3, G144N)
[3] = molecular target: BlaC (β-lactamase of Mycobacterium tuberculosis) (Mycobacterium tuberculosis, UniProt P9WKD3, K250R)
[4] = molecular target: T1, BlaC (β-lactamase of Mycobacterium tuberculosis); remark: listed apart in the source

Structure (SMILES) | nitrocefin hydrolysis progress curves with 10 μM clavulanic acid [1] | nitrocefin hydrolysis progress curves with 10 μM clavulanic acid (reduced inhibi) [2] | nitrocefin hydrolysis progress curves with 10 μM clavulanic acid (reduced inhibi) [3] | nitrocefin hydrolysis by purified enzyme [4]
O=C(O)[C@H]1/C(=C/CO)O[C@@H]2CC(=O)N21 [clavulanic acid] | The R213S mutant was found to require more time than wt BlaC to reach full inhibition. | The G132N and K234R mutations convey resistance to inhibition, maintaining some level of activity even after prolonged exposure. | The G132N and K234R mutations convey resistance to inhibition, maintaining some level of activity even after prolonged exposure. | 
O=C(Cc1cccs1)N[C@@H]1C(=O)N2C(C(=O)O)=C(/C=C/c3ccc([N+](=O)[O-])cc3[N+](=O)[O-])CS[C@H]12 [nitrocefin] |  |  |  | is plotted for wild-type (WT) BlaC and single-amino-acid mutants
